Drawing on BindingDB's records for doi:10.1111/cbdd.12744 (Southern Research Institute, 2016), this text covers IC50 for three compounds.

SMILES strings stand for the structures.

This assay deals with T1, Kinesin-like protein KIF11 [15-368] (Homo sapiens, UniProt P52732).
T1 construct: 15-368
T1 sequence (P52732 whole entry): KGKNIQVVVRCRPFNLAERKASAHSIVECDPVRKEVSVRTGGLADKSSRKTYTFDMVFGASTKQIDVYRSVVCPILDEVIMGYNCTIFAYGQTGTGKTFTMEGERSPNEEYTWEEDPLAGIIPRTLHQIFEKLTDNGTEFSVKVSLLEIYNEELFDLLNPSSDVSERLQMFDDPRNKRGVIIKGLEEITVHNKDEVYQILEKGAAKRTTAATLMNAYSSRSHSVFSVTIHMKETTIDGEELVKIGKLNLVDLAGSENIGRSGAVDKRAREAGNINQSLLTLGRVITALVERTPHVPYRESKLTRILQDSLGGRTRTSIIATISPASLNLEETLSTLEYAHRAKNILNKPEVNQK
The assay is described as follows: ADP Hunter Plus Assay. The settings on record: pH 7; 25 °C. How it is done: Compounds were first tested in triplicates at 100 uM; hit compounds were further tested with a 10-point twofold serial dilution to confirm their activity and determine their IC50 values. S-Trityl-L-cysteine (STLC), a selective Eg5 inhibitor(J. Biol. Chem. 2006, 281:17559-17569; Mol. Cancer Ther. 2004, 3:1079-1090), was used as the control compound. Specifically, 20 uL of 15 mM PIPES (pH 7.0) containing 1 mM MgCl2, 50 nM MT, 20 uM paclitaxel, 200 uM ATP, 5% DMSO, 60 nM Eg5 proteins, and 1:2 serial dilutions of each individual compound starting from 1000 uM were added to each well of a 96-well plate. The plate was incubated at room temperature for 0.5 h, and then, the ADP Hunter Plus reagents were added. The plate was further incubated for 0.5 h and then read for fluorescence (ex.530/em.590) on Synergy 4 (BioTek, Winooski, VT, USA).
One may read the IC50 as the point on the concentration scale where inhibition reaches its midpoint. On to `FC(F)(F)c1ccc(Nc2ncnc3[nH]ncc23)cc1` [SRI35565], for which the IC50 stood at 78.9 µM.

For the compound `Cc1ccc(C2C(C#N)=C(N)Nc3ncnn32)cc1` (stereo not drawn) [SRI35564], the concentration for half-maximal inhibition (IC50) is 118 µM.

Take `O=C1CC(c2ccccc2)c2c(n3ncnc3[nH]c2=O)N1` (stereo not drawn) [SRI35566]: the IC50 was found to be 65 µM.
